ChEMBL document CHEMBL1909046, “DrugMatrix in vitro pharmacology data”

Assays:
[1] = DRUGMATRIX: GABAA, Muscimol, Central radioligand binding (ligand: [3H] Muscimol); assay type: cell membranes, Rattus norvegicus, Wistar, Brain, Membrane; conditions: Not Active = under 50% inhibition at 10 µM
[2] = DRUGMATRIX: Glutamate, Kainate radioligand binding (ligand: [3H] Kainic acid); assay type: cell membranes, Rattus norvegicus, Wistar, Brain, Membrane; conditions: Not Active = under 50% inhibition at 10 µM
[3] = DRUGMATRIX: Glutamate, NMDA, Phencyclidine radioligand binding (ligand: [3H] TCP); assay type: cell membranes, Rattus norvegicus, Wistar, Cerebral cortex, Membrane; conditions: Not Active = under 50% inhibition at 10 µM
[4] = molecular target: T1, Cysteinyl leukotriene receptor 1 (Homo sapiens, UniProt Q9Y271); assay type: cell membranes, Membrane; conditions: cho-k1; further: in other assays of this panel Not Active means under 50% inhibition at 10 µM
T1 sequence (Q9Y271 whole entry): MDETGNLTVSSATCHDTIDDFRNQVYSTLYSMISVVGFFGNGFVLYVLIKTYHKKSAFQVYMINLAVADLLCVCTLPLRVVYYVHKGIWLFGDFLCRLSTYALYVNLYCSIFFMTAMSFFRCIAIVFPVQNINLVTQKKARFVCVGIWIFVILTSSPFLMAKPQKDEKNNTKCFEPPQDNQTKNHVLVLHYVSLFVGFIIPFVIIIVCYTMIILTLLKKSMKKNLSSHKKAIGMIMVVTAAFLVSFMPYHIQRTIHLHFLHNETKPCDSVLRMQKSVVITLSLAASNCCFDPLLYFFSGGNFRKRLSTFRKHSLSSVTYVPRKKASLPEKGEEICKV

[5] = molecular target: cGMP-specific 3',5'-cyclic phosphodiesterase (Homo sapiens, UniProt O76074); assay: DRUGMATRIX: Phosphodiesterase PDE5 enzyme inhibition (substrate: [3H]cGMP + cGMP); assay type: tissue-based, Platelet; conditions: platelet; Not Active = under 50% inhibition at 10 µM
[6] = molecular target: Mitogen-activated protein kinase 1 (Homo sapiens, UniProt P28482); assay: DRUGMATRIX: Protein Serine/Threonine Kinase, ERK2 enzyme inhibition (substrate: Myelin Basic Protein); design: species or system Escherichia coli; conditions: Not Active = under 50% inhibition at 10 µM
[7] = molecular target: Tyrosine-protein kinase Fyn (Homo sapiens, UniProt P06241); assay: biochemical; assay type: cell-based, Insect cells;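 further: enzymatic inhibition of Fyn kinase activity measured with Poly(Glu:Tyr) as the phosphorylation substrate; in other assays of this panel Not Active means under 50% inhibition at 10 µM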
[8] = molecular target: Cytochrome P450 2C9 (Homo sapiens, UniProt P11712); conditions: bti-tn-5b1-4; further: in other assays of this panel Not Active means under 50% inhibition at 10 µM
Cytochrome P450 2C9, sequence (P11712 whole entry): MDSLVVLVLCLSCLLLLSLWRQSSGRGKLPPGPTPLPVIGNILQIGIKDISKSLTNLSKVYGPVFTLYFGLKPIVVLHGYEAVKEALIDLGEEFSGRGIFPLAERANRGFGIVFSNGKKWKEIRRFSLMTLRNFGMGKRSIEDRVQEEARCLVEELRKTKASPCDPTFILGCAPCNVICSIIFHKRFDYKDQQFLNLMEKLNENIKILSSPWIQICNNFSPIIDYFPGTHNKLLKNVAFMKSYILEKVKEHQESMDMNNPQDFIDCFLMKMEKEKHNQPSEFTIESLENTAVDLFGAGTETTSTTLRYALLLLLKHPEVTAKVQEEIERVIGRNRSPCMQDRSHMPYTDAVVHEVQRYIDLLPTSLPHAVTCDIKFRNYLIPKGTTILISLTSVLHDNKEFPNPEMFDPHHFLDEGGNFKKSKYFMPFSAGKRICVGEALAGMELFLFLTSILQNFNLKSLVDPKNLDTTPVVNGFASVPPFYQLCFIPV

Mitogen-activated protein kinase 1, sequence (P28482 whole entry): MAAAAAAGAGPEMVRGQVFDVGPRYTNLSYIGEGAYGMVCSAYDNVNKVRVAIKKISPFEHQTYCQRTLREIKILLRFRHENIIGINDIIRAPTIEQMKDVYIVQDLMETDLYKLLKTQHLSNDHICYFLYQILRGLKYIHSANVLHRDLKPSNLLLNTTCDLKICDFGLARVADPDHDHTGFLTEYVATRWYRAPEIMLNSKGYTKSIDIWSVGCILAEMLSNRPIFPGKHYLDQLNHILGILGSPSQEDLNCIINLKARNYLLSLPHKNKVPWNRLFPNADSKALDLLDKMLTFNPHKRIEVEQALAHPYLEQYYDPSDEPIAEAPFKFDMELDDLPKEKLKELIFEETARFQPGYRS
Tyrosine-protein kinase Fyn, sequence (P06241 whole entry): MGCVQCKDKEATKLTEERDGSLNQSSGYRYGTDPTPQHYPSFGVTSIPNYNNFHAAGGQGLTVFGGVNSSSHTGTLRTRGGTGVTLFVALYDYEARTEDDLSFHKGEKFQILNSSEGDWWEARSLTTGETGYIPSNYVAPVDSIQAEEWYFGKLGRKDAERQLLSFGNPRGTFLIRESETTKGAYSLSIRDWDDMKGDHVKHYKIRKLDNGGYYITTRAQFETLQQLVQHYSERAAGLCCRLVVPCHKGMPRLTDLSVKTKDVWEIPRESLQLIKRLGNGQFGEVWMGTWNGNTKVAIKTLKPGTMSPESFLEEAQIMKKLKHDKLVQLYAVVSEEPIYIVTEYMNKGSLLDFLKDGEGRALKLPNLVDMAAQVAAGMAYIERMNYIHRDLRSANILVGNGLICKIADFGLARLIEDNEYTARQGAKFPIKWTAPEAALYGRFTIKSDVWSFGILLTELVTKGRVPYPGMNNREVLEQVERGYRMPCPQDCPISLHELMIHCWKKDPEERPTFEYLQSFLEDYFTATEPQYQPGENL

Structure (SMILES)	IC50 [1]	Ki [1]	IC50 [2]	Ki [2]	IC50 [3]	Ki [3]	IC50 [4]	IC50 [5]	IC50 [6]	IC50 ([7]; insect cells)	IC50 [8]	Ki [8]	IC50 ([7]; read-out: IC50) [µM]	IC50 ([3]; read-out: IC50) [µM]	Ki ([3]; read-out: Ki) [µM]
CCCNC(C)C(=O)Nc1ccccc1C (centres undefined) [PRILOCAINE]	Not Active	Not Active	Not Active	Not Active	Not Active	Not Active	Not Active	Not Active	Not Active	Not Active	Not Active	Not Active	–	–	–
NS(=O)(=O)c1cc(C2(O)NC(=O)c3ccccc32)ccc1Cl (centres undefined) [CHLORTHALIDONE]	Not Active	Not Active	Not Active	Not Active	Not Active	Not Active	Not Active	Not Active	Not Active	Not Active	Not Active	Not Active	–	–	–
CCN(CC)CCCC(C)Nc1c2ccc(Cl)cc2nc2ccc(OC)cc12 (centres undefined) [QUINACRINE]	Not Active	Not Active	Not Active	Not Active	Not Active	Not Active	Not Active	Not Active	Not Active	Not Active	Not Active	Not Active	–	–	–
CN1CCC(=C2c3ccccc3CC(=O)c3sccc32)CC1 [KETOTIFEN]	Not Active	Not Active	Not Active	Not Active	Not Active	Not Active	Not Active	Not Active	Not Active	Not Active	Not Active	Not Active	–	–	–
Cc1c(O)cccc1C(=O)N[C@@H](CSc1ccccc1)[C@H](O)CN1C[C@H]2CCCC[C@H]2C[C@H]1C(=O)NC(C)(C)C	Not Active	Not Active	Not Active	Not Active	Not Active	Not Active	Not Active	Not Active	Not Active	–	Not Active	Not Active	7.97	–	–
Cn1c(=O)c2c(ncn2C)n(C)c1=O [CAFFEINE]	Not Active	Not Active	Not Active	Not Active	Not Active	Not Active	Not Active	Not Active	Not Active	Not Active	Not Active	Not Active	–	–	–
CC(C)NCC(O)c1ccccc1Cl (centres undefined) [CLORPRENALINE]	Not Active	Not Active	Not Active	Not Active	Not Active	Not Active	Not Active	Not Active	Not Active	Not Active	Not Active	Not Active	–	–	–
NC(=O)c1cccnc1 [NIACINAMIDE]	Not Active	Not Active	Not Active	Not Active	Not Active	Not Active	Not Active	Not Active	Not Active	Not Active	Not Active	Not Active	–	–	–
C[C@]12C=CC(=O)C=C1CC[C@H]1[C@@H]3C[C@@H](O)[C@](O)(C(=O)CO)[C@@]3(C)C[C@H](O)[C@@]12F [TRIAMCINOLONE]	Not Active	Not Active	Not Active	Not Active	Not Active	Not Active	Not Active	Not Active	Not Active	Not Active	Not Active	Not Active	–	–	–
CC(=O)OCC(=O)[C@@]12OC(C)(C)O[C@@H]1C[C@H]1[C@@H]3C[C@H](F)C4=CC(=O)C=C[C@]4(C)[C@@]3(F)[C@@H](O)C[C@@]12C [FLUOCINONIDE]	Not Active	Not Active	Not Active	Not Active	Not Active	Not Active	Not Active	Not Active	Not Active	Not Active	–	–	–	–	–
CC(C)(C(=O)O)c1ccc(C(O)CCCN2CCC(C(O)(c3ccccc3)c3ccccc3)CC2)cc1 (centres undefined) [FEXOFENADINE]	Not Active	Not Active	Not Active	Not Active	Not Active	Not Active	Not Active	Not Active	Not Active	Not Active	–	–	–	–	–
CCC1=C(C)CN(C(=O)NCCc2ccc(S(=O)(=O)NC(=O)N[C@H]3CC[C@H](C)CC3)cc2)C1=O [GLIMEPIRIDE]	Not Active	Not Active	Not Active	Not Active	Not Active	Not Active	Not Active	Not Active	Not Active	Not Active	–	–	–	–	–
NNCCc1ccccc1 [PHENELZINE]	Not Active	Not Active	Not Active	Not Active	Not Active	Not Active	Not Active	Not Active	Not Active	Not Active	–	–	–	–	–
O=C(c1ccccc1F)N1CCC(Cc2ccccc2)CC1	Not Active	Not Active	Not Active	Not Active	Not Active	Not Active	Not Active	Not Active	Not Active	Not Active	–	–	–	–	–
CC(C)C[C@H]1C(=O)N2CCC[C@H]2[C@]2(O)O[C@](NC(=O)[C@@H]3C=C4c5cccc6[nH]cc(c56)C[C@H]4N(C)C3)(C(C)C)C(=O)N12 [ERGOCRYPTINE]	Not Active	Not Active	Not Active	Not Active	Not Active	Not Active	Not Active	Not Active	Not Active	Not Active	–	–	–	–	–
COc1ccc2c(c1OC)C(=O)O[C@@H]2[C@H]1c2c(cc3c(c2OC)OCO3)CCN1C [NOSCAPINE]	Not Active	Not Active	Not Active	Not Active	Not Active	Not Active	Not Active	Not Active	Not Active	Not Active	–	–	–	–	–
C[C@@H]1C/C=C/C=C/C=C/C=C/[C@H](O[C@@H]2O[C@H](C)[C@@H](O)[C@H](N)[C@@H]2O)C[C@@H]2O[C@](O)(C[C@@H](O)C[C@H]3O[C@@H]3/C=C/C(=O)O1)C[C@H](O)[C@H]2C(=O)O [NATAMYCIN]	Not Active	Not Active	Not Active	Not Active	Not Active	Not Active	Not Active	Not Active	Not Active	Not Active	–	–	–	–	–
NC12CC3CC(CC(C3)C1)C2 [AMANTADINE]	Not Active	Not Active	Not Active	Not Active	–	–	Not Active	Not Active	Not Active	Not Active	–	–	–	32	21.7
CC(C)c1c(C(=O)Nc2ccccc2)c(-c2ccccc2)c(-c2ccc(F)cc2)n1CC[C@@H](O)C[C@@H](O)CC(=O)O [ATORVASTATIN]	Not Active	Not Active	Not Active	Not Active	Not Active	Not Active	Not Active	Not Active	Not Active	Not Active	–	–	–	–	–
N=C(N)c1ccc(OCCCCCOc2ccc(C(=N)N)cc2)cc1 [PENTAMIDINE]	Not Active	Not Active	Not Active	Not Active	Not Active	Not Active	Not Active	Not Active	Not Active	Not Active	–	–	–	–	–
CCOc1nc2cccc(C(=O)O)c2n1Cc1ccc(-c2ccccc2-c2nnn[nH]2)cc1	Not Active	Not Active	Not Active	Not Active	Not Active	Not Active	Not Active	Not Active	Not Active	Not Active	–	–	–	–	–
N[C@@H](Cn1ccc(=O)c(O)c1)C(=O)O [L-MIMOSINE]	Not Active	Not Active	Not Active	Not Active	Not Active	Not Active	Not Active	Not Active	Not Active	Not Active	–	–	–	–	–
CC(C)(C)NCC(O)COc1cccc2c1CC(O)C(O)C2 (centres undefined) [NADOLOL]	Not Active	Not Active	Not Active	Not Active	Not Active	Not Active	Not Active	Not Active	Not Active	Not Active	–	–	–	–	–
CO/N=C(\C(=O)N[C@@H]1C(=O)N2C(C(=O)O)=C(COC(C)=O)CS[C@H]12)c1csc(N)n1 [CEFOTAXIME]	Not Active	Not Active	Not Active	Not Active	Not Active	Not Active	Not Active	Not Active	–	Not Active	Not Active	Not Active	–	–	–
